Results reported in patent US20260151350A1, “COMPOSITIONS AND METHODS FOR TARGETED DELIVERY TO CELLS” (The Board of Regents of The University of Texas System, priority 2021, published 2026).

System: C57BL/6 mice
Assay: Cy5-mRNA biodistribution, ex vivo organ fluorescence after IV injection
Type: in vivo, mouse
Details: 0.5 mg/kg mRNA IV, 6 h
Method: FIG. 1B illustrates ex vivo fluorescence of Cy5-labelled mRNA in major organs extracted from C57BL/6 mice intravenously injected with example SORT LNPs (as described herein) that incorporate increasing percentages of different SORT molecules (0.5 mg/kg mRNA/body weight, 6 h).
FIG. 1C illustrates relative average Cy5 fluorescence measured in the liver, lung, and spleen as a function of SORT molecule percent inclusion (0.5 mg/kg mRNA/body weight, n=2). SORT molecules promote mRNA biodistribution to target organs. Data are shown as mean±s.e.m.
We first investigated the biodistribution of mRNA encapsulated in example SORT LNPs to determine whether there was a correlation between the organs in which the SORT LNPs accumulated and their tissue-specific mRNA activity. We formulated example liver, lung, and spleen SORT LNPs encapsulating Cy5-labelled mRNA following the identical protocols and formulation parameters used in our previous publications. We administered each LNP IV to C57BL/6 mice and tracked the in vivo biodistribution of the Cy5-mRNA using fluorescence imaging. Six hours post-injection, organs were excised and imaged ex vivo (FIG. 1B). The average fluorescence produced by the liver, spleen, and lungs was quantified (FIG. 1C). […] Importantly, these tracking studies quantify where the example SORT LNPs biodistribute but not where mRNA is translated to protein (functional delivery).

**Q.** `CCCCCCCC/C=C\CCCCCCCC(=O)OCC(CN(C)C)OC(=O)CCCCCCC/C=C\CCCCCCCC` (stereo not shown) [DODAP, 1,2-Dioleoyl-3-dimethylammonium-propane] was tested. Which “SORT molecule inclusion giving optimal liver biodistribution” value did it give?
**A.** The value was 20%.
